# Experimental data as given in US20210255193A1, “LYSINE REACTIVE PROBES AND USES THEREOF” (The Scripps Research Institute, priority 2017, published 2021).
# What was measured:
# Test in all cases: competitive isoTOP-ABPP
# Type in all cases: binding
# LMNA Prelamin-A/C = target: T1, LMNA Prelamin-A/C (Homo sapiens, UniProt P02545)
# T1 construct: isoTOP-ABPP experiments performed in cell lysates (in vitro); endogenous in cells; host or cells: MDA-MB-231 soluble lysate
# T1 sequence (P02545 1-664): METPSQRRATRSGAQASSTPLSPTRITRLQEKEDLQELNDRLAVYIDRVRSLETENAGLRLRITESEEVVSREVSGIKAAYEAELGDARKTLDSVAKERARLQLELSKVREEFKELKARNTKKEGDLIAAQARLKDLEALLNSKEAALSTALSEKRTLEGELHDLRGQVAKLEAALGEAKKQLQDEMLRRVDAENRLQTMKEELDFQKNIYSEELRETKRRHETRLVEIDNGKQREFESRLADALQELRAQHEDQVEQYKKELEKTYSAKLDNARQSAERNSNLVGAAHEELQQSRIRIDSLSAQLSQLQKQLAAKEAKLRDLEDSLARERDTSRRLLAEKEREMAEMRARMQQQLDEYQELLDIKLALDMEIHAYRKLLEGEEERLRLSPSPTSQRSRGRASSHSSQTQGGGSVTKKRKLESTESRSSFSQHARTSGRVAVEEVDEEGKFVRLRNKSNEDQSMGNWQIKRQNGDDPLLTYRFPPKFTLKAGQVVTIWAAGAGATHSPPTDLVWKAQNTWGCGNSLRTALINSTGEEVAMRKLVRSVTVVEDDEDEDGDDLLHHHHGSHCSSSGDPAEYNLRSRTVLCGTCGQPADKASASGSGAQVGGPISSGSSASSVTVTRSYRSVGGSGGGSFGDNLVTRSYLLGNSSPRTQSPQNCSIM
# In short: (§1)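 Cell lysate (0.5 ml) was pre-treated with fragment, 50 μM for activated esters or 100 μM for guanidinylating agents, versus DMSO, then labeled 1 h at ambient temperature with 0.1 mM STP-alkyne. Light/heavy TEV tags attached by CuAAC; R = DMSO/compound MS1 peak-area ratio, median per lysine.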
# [1] = target: T2, RQCD1 Cell differentiation protein RCD1 homolog (Homo sapiens, UniProt Q92600)
# T2 construct: isoTOP-ABPP experiments performed in cell lysates (in vitro); endogenous in cells; host or cells: soluble proteome of human cancer cell lines (MDA-MB-231; Ramos and Jurkat also prepared)
# In short: as §1
# [2] = target: T3, UCHL5 Ubiquitin carboxyl-terminal hydrolase isozyme L5 (Homo sapiens, UniProt Q9Y5K5)
# T3 construct: endogenous in cells; host or cells: MDA-MB-231 (soluble fraction of lysate)
# T3 sequence (Q9Y5K5 1-329): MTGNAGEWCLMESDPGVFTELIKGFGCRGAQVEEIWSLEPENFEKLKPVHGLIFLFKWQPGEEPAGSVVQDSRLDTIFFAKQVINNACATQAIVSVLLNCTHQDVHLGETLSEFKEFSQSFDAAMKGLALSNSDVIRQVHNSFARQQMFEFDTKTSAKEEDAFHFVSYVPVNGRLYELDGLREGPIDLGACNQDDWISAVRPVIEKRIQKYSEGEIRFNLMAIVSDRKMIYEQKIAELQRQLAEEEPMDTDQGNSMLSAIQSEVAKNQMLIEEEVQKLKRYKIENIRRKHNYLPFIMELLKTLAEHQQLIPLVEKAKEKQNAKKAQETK
# In short: as §1
# [3] = target: T4, ERAP1 Endoplasmic reticulum aminopeptidase 1 (Homo sapiens, UniProt Q9NZ08)
# T4 construct: endogenous in cells; host or cells: MDA-MB-231 lysate
# In short: as §1
# [4] = target: T5, MTOR Serine/threonine-protein kinase mTOR (Homo sapiens, UniProt P42345)
# T5 construct: isoTOP-ABPP experiments performed in cell lysates (in vitro); endogenous in cells; host or cells: soluble proteome of human cancer cell lines (MDA-MB-231; Ramos and Jurkat also prepared)
# In short: as §1
# T4 sequence (Q9NZ08 whole entry): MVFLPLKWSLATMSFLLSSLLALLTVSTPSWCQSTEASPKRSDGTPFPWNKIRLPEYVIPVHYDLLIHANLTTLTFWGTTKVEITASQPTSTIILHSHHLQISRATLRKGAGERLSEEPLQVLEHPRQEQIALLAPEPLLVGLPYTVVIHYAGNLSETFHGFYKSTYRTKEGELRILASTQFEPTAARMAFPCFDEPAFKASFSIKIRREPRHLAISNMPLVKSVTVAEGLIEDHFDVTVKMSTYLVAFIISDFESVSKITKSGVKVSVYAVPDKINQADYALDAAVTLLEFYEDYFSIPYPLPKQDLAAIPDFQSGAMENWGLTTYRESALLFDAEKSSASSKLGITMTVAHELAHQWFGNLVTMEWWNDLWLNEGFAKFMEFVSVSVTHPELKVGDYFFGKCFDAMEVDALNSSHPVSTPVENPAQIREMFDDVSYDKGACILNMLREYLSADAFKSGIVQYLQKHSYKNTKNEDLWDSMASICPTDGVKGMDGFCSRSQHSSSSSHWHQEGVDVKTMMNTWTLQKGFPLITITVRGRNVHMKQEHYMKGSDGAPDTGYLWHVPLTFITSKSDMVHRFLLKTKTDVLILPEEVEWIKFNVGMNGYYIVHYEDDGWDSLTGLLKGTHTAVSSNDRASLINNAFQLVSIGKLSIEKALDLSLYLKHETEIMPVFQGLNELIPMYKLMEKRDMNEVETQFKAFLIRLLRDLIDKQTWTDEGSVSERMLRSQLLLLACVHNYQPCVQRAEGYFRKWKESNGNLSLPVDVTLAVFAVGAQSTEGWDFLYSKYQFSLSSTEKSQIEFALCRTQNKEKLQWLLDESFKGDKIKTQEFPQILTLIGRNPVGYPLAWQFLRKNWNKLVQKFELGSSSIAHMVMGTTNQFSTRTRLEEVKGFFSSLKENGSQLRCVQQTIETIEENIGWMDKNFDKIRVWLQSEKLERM
# T2 sequence (Q92600 whole entry): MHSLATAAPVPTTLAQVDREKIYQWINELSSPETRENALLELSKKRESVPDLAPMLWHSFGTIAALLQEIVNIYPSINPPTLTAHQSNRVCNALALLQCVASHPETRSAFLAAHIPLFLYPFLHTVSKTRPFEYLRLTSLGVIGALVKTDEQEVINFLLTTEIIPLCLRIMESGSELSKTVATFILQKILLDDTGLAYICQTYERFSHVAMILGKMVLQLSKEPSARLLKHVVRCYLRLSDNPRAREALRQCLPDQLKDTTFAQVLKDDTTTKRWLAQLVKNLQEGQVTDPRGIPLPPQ
"isoTOP-ABPP ratio, lysine P02545_K135 (LMNA Prelamin-A/C; 50 uM_231_sol_in vitro)","isoTOP-ABPP ratio, lysine Q92600_K230 ([1]; 50 uM_231_sol_in vitro)","isoTOP-ABPP ratio, lysine Q9Y5K5_K323 ([2]; 50 uM_231_sol_in vitro)","isoTOP-ABPP ratio, lysine Q9NZ08_K685 ([3]; 50 uM_231_sol_in vitro)","isoTOP-ABPP ratio, lysine P42345_K2066 ([4]; 50 uM_231_sol_in vitro)","isoTOP-ABPP ratio, lysine P02545_K135 (LMNA Prelamin-A/C; 100 uM_231_sol_in vitro)","isoTOP-ABPP ratio, lysine Q92600_K230 ([1]; 100 uM_231_sol_in vitro)","isoTOP-ABPP ratio, lysine Q9Y5K5_K323 ([2]; 100 uM_231_sol_in vitro)","isoTOP-ABPP ratio, lysine Q9NZ08_K685 ([3]; 100 uM_231_sol_in vitro)","isoTOP-ABPP ratio, lysine P42345_K2066 ([4]; 100 uM_231_sol_in vitro)",Compound
1.2,0.8,1.4,1.3,1.1,–,–,–,–,–,"O=C(Oc1c(F)c(F)c(C(F)(F)F)c(F)c1F)c1cc(C(F)(F)F)cc(C(F)(F)F)c1 [fragment 47, 2,3,5,6-Tetrafluoro-4-(trifluoromethyl)phenyl 3,5-bis(trifluoromethyl)benzoate]"
–,–,–,–,–,1.1,1.1,9.0,1.6,1.0,"COC(=O)NC(=NC(=O)OCC1c2ccccc2-c2ccccc21)n1cccn1 [fragment 49, N-Methoxycarbonyl-N′-9-fluorenylmethoxycarbonyl-pyrazole-1-carboxamidine]"
–,–,–,–,–,1.3,1.0,2.2,20.0,1.4,"CC(C)(C)OC(=O)N=C(NC(=O)OC(C)(C)C)n1cccn1 [fragment 50, reference compound]"
1.0,0.9,1.0,0.9,0.8,–,–,–,–,–,"NC(=O)c1cc(C(F)(F)F)cc(C(F)(F)F)c1 [fragment 51, reference compound]"
